Substitutions are numbered along the chain they refer to. Like-named read-outs stand apart in the source and are kept apart here.
Columns and labels:
RET(KD: 658-1114 G810R) = biological target: T1, RET(KD: 658-1114 G810R) (Homo sapiens, UniProt P07949, G810R); assay: HiBiT-Degradation, RET G810R degradation assay (Nano-Glo HiBiT Lytic), 293T.165 cells; format: cell-based; conditions: for Emax / DC50: 6.0 hours; for Emax: % remaining protein, read-out: 293T.165 RET(KD: 658-1114 G810R) 6.0 hours (Emax); for DC50: read-out: 293T.165 RET(KD: 658-1114 G810R) 6.0 hours (DC50)
T1 construct: 658-1114; expressed in transfected cells; host or cells: 293T.165 (293T cells, generated in-house)
T1 sequence (P07949 658-1114 G810R): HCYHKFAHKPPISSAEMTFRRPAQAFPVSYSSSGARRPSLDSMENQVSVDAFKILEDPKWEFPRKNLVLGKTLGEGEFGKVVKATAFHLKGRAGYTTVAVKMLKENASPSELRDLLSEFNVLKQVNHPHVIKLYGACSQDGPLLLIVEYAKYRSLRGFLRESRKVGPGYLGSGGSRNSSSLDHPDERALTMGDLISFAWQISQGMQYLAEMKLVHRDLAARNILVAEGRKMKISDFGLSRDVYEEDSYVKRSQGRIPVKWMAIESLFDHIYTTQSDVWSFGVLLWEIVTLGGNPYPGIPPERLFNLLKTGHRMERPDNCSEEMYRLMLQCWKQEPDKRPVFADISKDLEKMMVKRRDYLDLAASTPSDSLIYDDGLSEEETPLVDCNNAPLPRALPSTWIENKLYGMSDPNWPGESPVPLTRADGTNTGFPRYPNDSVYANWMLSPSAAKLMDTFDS
Method in brief: (§1)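 Luminescence readout of HiBiT-tagged RET kinase domain remaining after 6 h compound exposure. Cells: 293T.144 (wild type) or 293T.165 (G810R), 11 half-log doses up to 10 μM, duplicates. DC50 and Emax as % remaining protein taken from curve fits.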

RET (658-1114) = biological target: T2, RET (658-1114) (Homo sapiens, UniProt P07949); assay: HiBiT-Degradation, RET wild-type degradation assay (Nano-Glo HiBiT Lytic), 293T.144 cells; format: cell-based; conditions: for Emax / DC50: 6.0 hours; for Emax: read-out: 293T.144 RET (658-1114) 6.0 hours (Emax); for DC50: read-out: 293T.144 RET (658-1114) 6.0 hours (DC50)
T2 construct: 658-1114; expressed in transfected cells; host or cells: 293T.144 (293T cells, generated in-house)
T2 sequence (P07949 658-1114): T1 sequence (P07949 658-1114 G810R) with R153G
Method in brief: as §1

[1] = half-maximal degradation concentration

Row | SMILES | 293T.165 RET(KD: 658-1114 G810R) 6.0 hours (IP) [nM] (RET(KD: 658-1114 G810R)) | Emax (RET(KD: 658-1114 G810R)) [%] | DC50 (RET(KD: 658-1114 G810R); [1]) [nM] | 293T.144 RET (658-1114) 6.0 hours (IP) [nM] (RET (658-1114)) | Emax (RET (658-1114); % remaining protein) [%] | DC50 (RET (658-1114); [1]) [nM] | 293T.165 RET(KD: 658-1114 G810R) 6.0 hours (Emax) (RET(KD: 658-1114 G810R); HiBiT-Degradation) | 293T.165 RET(KD: 658-1114 G810R) 6.0 hours (IP) [nM] (RET(KD: 658-1114 G810R); HiBiT-Degradation) | DC50 (RET(KD: 658-1114 G810R); HiBiT-Degradation) [nM] | 293T.144 RET (658-1114) 6.0 hours (IP) [nM] (RET (658-1114); HiBiT-Degradation) | DC50 (RET (658-1114); HiBiT-Degradation) [nM] | Emax (RET (658-1114); HiBiT-Degradation) [%]
1 | N#Cc1cnn2cc(-c3cnn([C@H]4CC[C@H](N5CCN(c6ccc(N[C@H]7CCC(=O)NC7=O)cc6F)CC5)CC4)c3)nc(-c3ccc(N4CC5COCC(C4)N5Cc4ccccn4)nc3)c12 (single isomer, unassigned) [Compound 155] | ++++ (<50 nM = ++++) | < 30 | < 50 | ++++ (<50 nM = ++++) | < 30 | < 50 | – | – | – | – | – | –
2 | CC(C)NC(=O)C1(C)CCN(c2ccc(-c3cc(-c4cnn([C@H]5CC[C@H](CCN6CCC(c7ccc(NC8CCC(=O)NC8=O)cc7F)CC6)CC5)c4)cn4ncc(C#N)c34)cn2)CC1 (stereo partly shown) [Compound 34, 1-(5-(3-Cyano-6-(1-((1r,4r)-4-(2-(4-(4-((2,6-dioxopiperidin-3-yl)amino)-2-fluorophenyl)piperidin-1-yl)ethyl)cyclohexyl)-1H-pyrazol-4-yl)pyrazolo[1,5-a]pyridin-4-yl)pyridin-2-yl)-N-isopropyl-4-methylpiperidine-4-carboxamide] | – | < 30 | < 50 | – | – | – | ++++ (< 30% = ++++) | ++++ (< 50 nM = ++++) | < 50 | ++++ (< 50 nM = ++++) | < 50 | < 30

Next, values leading:

Row | 293T.165 RET(KD: 658-1114 G810R) 6.0 hours (IP) [nM] (RET(KD: 658-1114 G810R)) | Emax (RET(KD: 658-1114 G810R)) [%] | DC50 (RET(KD: 658-1114 G810R); [1]) [nM] | 293T.144 RET (658-1114) 6.0 hours (IP) [nM] (RET (658-1114)) | Emax (RET (658-1114); % remaining protein) [%] | DC50 (RET (658-1114); [1]) [nM] | 293T.165 RET(KD: 658-1114 G810R) 6.0 hours (Emax) (RET(KD: 658-1114 G810R); HiBiT-Degradation) | 293T.165 RET(KD: 658-1114 G810R) 6.0 hours (IP) [nM] (RET(KD: 658-1114 G810R); HiBiT-Degradation) | DC50 (RET(KD: 658-1114 G810R); HiBiT-Degradation) [nM] | 293T.144 RET (658-1114) 6.0 hours (IP) [nM] (RET (658-1114); HiBiT-Degradation) | DC50 (RET (658-1114); HiBiT-Degradation) [nM] | Emax (RET (658-1114); HiBiT-Degradation) [%] | SMILES
3 | ++++ (<50 nM = ++++) | < 30 | < 50 | ++++ (<50 nM = ++++) | < 30 | < 50 | – | – | – | – | – | – | CCC1(C(=O)NC(C)C)CCN(c2ccc(-c3cc(-c4cnn([C@H]5CC[C@H](N6CCC(c7ccc(N[C@@H]8CCC(=O)NC8=O)cc7F)CC6)CC5)c4)cn4ncc(C#N)c34)cn2)CC1 (single isomer, unassigned) [Compound 195]
4 | ++++ (<50 nM = ++++) | < 30 | < 50 | ++++ (<50 nM = ++++) | < 30 | < 50 | – | – | – | – | – | – | CCC1(C(=O)NC(C)(C)C)CCN(c2ccc(-c3nc(-c4cnn(C5CCN(C(=O)CC6(O)CCN(c7ccc(NC8CCC(=O)NC8=O)cc7F)CC6)CC5)c4)cn4ncc(C#N)c34)cn2)CC1 (stereo not shown) [Compound 103, N-tert-butyl-1-[5-[3-cyano-6-[1-[1-[2-[1-[4-[(2,6-dioxo-3-piperidyl)amino]-2-fluoro-phenyl]-4-hydroxy-4-piperidyl]acetyl]-4-piperidyl]pyrazol-4-yl]pyrazolo[1,5-a]pyrazin-4-yl]-2-pyridyl]-4-ethyl-piperidine-4-carboxamide]
5 | – | < 50 | < 100 | – | – | – | +++ (<50% = +++) | ++++ (< 50 nM = ++++) | < 100 | ++++ (< 50 nM = ++++) | < 50 | < 30 | N#Cc1cnn2cc(-c3ccc(N4CCN(C(=O)CN5CCC(c6ccc(NC7CCC(=O)NC7=O)cc6F)CC5)CC4)cc3)nc(-c3ccc(N4CCN(C(=O)Cc5ccc(F)cn5)CC4)nc3)c12 (stereo not shown) [Compound 52, 6-[4-[4-[2-[4-[4-[(2,6-dioxo-3-piperidyl)amino]-2-fluoro-phenyl]-1-piperidyl]acetyl]piperazin-1-yl]phenyl]-4-[6-[4-[2-(5-fluoro-2-pyridyl)acetyl]piperazin-1-yl]-3-pyridyl]pyrazolo[1,5-a]pyrazine-3-carbonitrile]

From patent US12661410B2, “Compounds for targeted degradation of RET” (C4 Therapeutics, Inc., priority 2020, dated 2026)
